Test results reported in ChEMBL document CHEMBL1201862, “PubChem BioAssay data set” (2004).
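Interpolation was linear, between the two tested concentrations surrounding the appropriate level; five concentrations were tested over 48 hours in 96-well plates. Abbreviation: GI50, concentration required for 50% inhibition of growth.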 Active and inactive are the calls of the source. Rule as the data show it: active = GI50 up to about 1.1 µM and inactive = higher.

How the values were obtained:
Assay in all cases: NCI-60 cell line screen, 48 h
786-0 = test system: 786-0
A498 = test system: A498
A549 = test system: A549
CAKI-1 = test system: CAKI-1
CCRF-CEM = test system: CCRF-CEM
COLO 205 = test system: COLO 205
DLD-1 = test system: DLD-1
DMS-114 = test system: DMS-114
DMS-273 = test system: DMS-273
EKVX = test system: EKVX
HCC 2998 = test system: HCC 2998
HCT-15 = test system: HCT-15
HL-60 = test system: HL-60
HOP-62 = test system: HOP-62
HT-29 = test system: HT-29
IGROV-1 = test system: IGROV-1
K562 = test system: K562
KM-20L2 = test system: KM-20L2
KM12 = test system: KM12
LOX IMVI = test system: LOX IMVI
LXFL 529 = test system: LXFL 529
M14 = test system: M14
M19-MEL = test system: M19-MEL
MOLT-4 = test system: MOLT-4
Malme-3M = test system: Malme-3M
NCI-H226 = test system: NCI-H226
NCI-H23 = test system: NCI-H23
NCI-H522 = test system: NCI-H522
OVCAR-3 = test system: OVCAR-3
OVCAR-8 = test system: OVCAR-8
RPMI-8226 = test system: RPMI-8226
RXF 393 = test system: RXF 393
SF-268 = test system: SF-268
SF-295 = test system: SF-295
SF-539 = test system: SF-539
SK-MEL-28 = test system: SK-MEL-28
SK-MEL-2 = test system: SK-MEL-2
SK-MEL-5 = test system: SK-MEL-5
SK-OV-3 = test system: SK-OV-3
SN12C = test system: SN12C
SNB-19 = test system: SNB-19
SNB-75 = test system: SNB-75
SNB-78 = test system: SNB-78
SW-620 = test system: SW-620
TK-10 = test system: TK-10
U-251 = test system: U-251
UACC-257 = test system: UACC-257
UACC-62 = test system: UACC-62
UO-31 = test system: UO-31
XF498 = test system: XF498
ACHN = test system: ACHN
HCT-116 = test system: HCT-116
HOP-92 = test system: HOP-92
NCI-H460 = test system: NCI-H460
OVCAR-4 = test system: OVCAR-4
OVCAR-5 = test system: OVCAR-5
SR = test system: SR

For `CN1CC2(CCCCC2)C(O)C12C=CCCC2` (stereo unspecified), the GI50 (786-0) was > 100 µM (inactive), the GI50 (A498) was > 100 µM (inactive) and the GI50 (A549) was > 100 µM (inactive). For the same compound, the GI50 (CAKI-1) was > 100 µM (inactive), the GI50 (CCRF-CEM) was > 100 µM (inactive) and the GI50 (COLO 205) was > 100 µM (inactive). The GI50 (DLD-1) was > 100 µM (inactive), the GI50 (DMS-114) was > 100 µM (inactive) and the GI50 (DMS-273) was > 100 µM (inactive). For the same compound, the GI50 (EKVX) was > 100 µM (inactive), the GI50 (HCC 2998) was > 100 µM (inactive) and the GI50 (HCT-15) was over 100 µM. The GI50 (HL-60) was > 100 µM (inactive), the GI50 (HOP-62) was > 100 µM (inactive) and the GI50 (HT-29) was > 100 µM (inactive). The GI50 (IGROV-1) was > 100 µM (inactive), the GI50 (K562) was > 100 µM (inactive) and the GI50 (KM-20L2) was > 100 µM (inactive). The GI50 (KM12) was > 100 µM (inactive), the GI50 (LOX IMVI) was > 100 µM (inactive) and the GI50 (LXFL 529) was > 100 µM (inactive). The GI50 (M14) was > 100 µM (inactive), the GI50 (M19-MEL) was > 100 µM (inactive) and the GI50 (MOLT-4) was > 100 µM (inactive). For the same compound, the GI50 (Malme-3M) was > 100 µM (inactive), the GI50 (NCI-H226) was > 100 µM (inactive) and the GI50 (NCI-H23) was > 100 µM (inactive). For the same compound, the GI50 (NCI-H522) was > 100 µM (inactive), the GI50 (OVCAR-3) was > 100 µM (inactive) and the GI50 (OVCAR-8) was > 100 µM (inactive). The GI50 (RPMI-8226) was > 100 µM (inactive), the GI50 (RXF 393) was > 100 µM (inactive) and the GI50 (SF-268) was > 100 µM (inactive). For the same compound, the GI50 (SF-295) was > 100 µM (inactive), the GI50 (SF-539) was > 100 µM (inactive) and the GI50 (SK-MEL-28) was > 100 µM (inactive). For the same compound, the GI50 (SK-MEL-2) was > 100 µM (inactive), the GI50 (SK-MEL-5) was > 100 µM (inactive) and the GI50 (SK-OV-3) was > 100 µM (inactive). The GI50 (SN12C) was > 100 µM (inactive), the GI50 (SNB-19) was > 100 µM (inactive) and the GI50 (SNB-75) was 69.5 µM (inactive). For the same compound, the GI50 (SNB-78) was > 100 µM (inactive), the GI50 (SW-620) was > 100 µM (inactive) and the GI50 (TK-10) was > 100 µM (inactive). For the same compound, the GI50 (U-251) was > 100 µM (inactive), the GI50 (UACC-257) was > 100 µM (inactive) and the GI50 (UACC-62) was > 100 µM (inactive). For the same compound, the GI50 (UO-31) was > 100 µM (inactive) and the GI50 (XF498) was > 100 µM (inactive).

In the case of `C/C=C1/CCC2c3[nH]c4ccccc4c3CCN2C1` (stereo unspecified), the GI50 (786-0) is reported as > 100 µM (inactive), the GI50 (A498) is reported as > 100 µM (inactive) and the GI50 (A549) is reported as > 100 µM (inactive). The GI50 (ACHN) was > 100 µM (inactive), the GI50 (CAKI-1) was 37.2 µM (inactive) and the GI50 (CCRF-CEM) was > 100 µM (inactive). For the same compound, the GI50 (DLD-1) was > 100 µM (inactive), the GI50 (DMS-114) was 93.8 µM (inactive) and the GI50 (DMS-273) was > 100 µM (inactive). The GI50 (EKVX) was > 100 µM (inactive), the GI50 (HCT-116) was 66.5 µM (inactive) and the GI50 (HL-60) was 58.2 µM (inactive). For the same compound, the GI50 (HOP-62) was > 100 µM (inactive), the GI50 (HOP-92) was 24.2 µM (inactive) and the GI50 (HT-29) was 45.7 µM (inactive). For the same compound, the GI50 (IGROV-1) was > 100 µM (inactive), the GI50 (K562) was 32 µM (inactive) and the GI50 (KM-20L2) was 97.1 µM (inactive). The GI50 (KM12) was > 100 µM (inactive), the GI50 (LXFL 529) was > 100 µM (inactive) and the GI50 (M14) was 14.4 µM (inactive). For the same compound, the GI50 (M19-MEL) was 86.3 µM (inactive), the GI50 (MOLT-4) was > 100 µM (inactive) and the GI50 (Malme-3M) was 0.256 µM (active). The GI50 (NCI-H226) was 57.5 µM (inactive), the GI50 (NCI-H23) was > 100 µM (inactive) and the GI50 (NCI-H460) was > 100 µM (inactive). The GI50 (NCI-H522) was > 100 µM (inactive), the GI50 (OVCAR-3) was > 100 µM (inactive) and the GI50 (OVCAR-4) was 42 µM (inactive). For the same compound, the GI50 (OVCAR-5) was > 100 µM (inactive), the GI50 (OVCAR-8) was > 100 µM (inactive) and the GI50 (RXF 393) was > 100 µM (inactive). The GI50 (SF-268) was > 100 µM (inactive), the GI50 (SF-295) was > 100 µM (inactive) and the GI50 (SF-539) was > 100 µM (inactive). The GI50 (SK-MEL-28) was > 100 µM (inactive), the GI50 (SK-MEL-2) was > 100 µM (inactive) and the GI50 (SK-MEL-5) was 37.2 µM (inactive). For the same compound, the GI50 (SK-OV-3) was > 100 µM (inactive), the GI50 (SN12C) was > 100 µM (inactive) and the GI50 (SNB-19) was > 100 µM (inactive). The GI50 (SNB-75) was 66.4 µM (inactive), the GI50 (SNB-78) was > 100 µM (inactive) and the GI50 (SR) was > 100 µM (inactive). The GI50 (SW-620) was > 100 µM (inactive), the GI50 (TK-10) was > 100 µM (inactive) and the GI50 (U-251) was > 100 µM (inactive). For the same compound, the GI50 (UACC-257) was 64.9 µM (inactive), the GI50 (UACC-62) was 60.8 µM (inactive) and the GI50 (UO-31) was > 100 µM (inactive). The GI50 (XF498) was 55.6 µM (inactive).

`COC(=O)c1c(C(=O)OC)c(-c2ccccc2)n(-c2ccccc2)c(=O)c1-c1ccccc1` was tested, and the GI50 (786-0) was 32.4 µM (inactive), the GI50 (A498) was > 100 µM (inactive) and the GI50 (A549) was 80.4 µM (inactive). For the same compound, the GI50 (CAKI-1) was 51.2 µM (inactive), the GI50 (CCRF-CEM) was > 100 µM (inactive) and the GI50 (COLO 205) was > 100 µM (inactive). For the same compound, the GI50 (DLD-1) was 66.5 µM (inactive), the GI50 (DMS-114) was 74.1 µM (inactive) and the GI50 (DMS-273) was 87.7 µM (inactive). For the same compound, the GI50 (EKVX) was > 100 µM (inactive), the GI50 (HCC 2998) was > 100 µM (inactive) and the GI50 (HCT-116) was 58.7 µM (inactive). For the same compound, the GI50 (HCT-15) was over 100 µM, the GI50 (HL-60) was > 100 µM (inactive) and the GI50 (HOP-62) was 27.6 µM (inactive). The GI50 (HOP-92) was 24.3 µM (inactive), the GI50 (HT-29) was > 100 µM (inactive) and the GI50 (IGROV-1) was > 100 µM (inactive). For the same compound, the GI50 (K562) was > 100 µM (inactive), the GI50 (KM-20L2) was > 100 µM (inactive) and the GI50 (KM12) was > 100 µM (inactive). The GI50 (LOX IMVI) was 84.5 µM (inactive), the GI50 (LXFL 529) was > 100 µM (inactive) and the GI50 (M14) was > 100 µM (inactive). The GI50 (M19-MEL) was 92.3 µM (inactive), the GI50 (MOLT-4) was > 100 µM (inactive) and the GI50 (Malme-3M) was 61.2 µM (inactive). For the same compound, the GI50 (NCI-H226) was > 100 µM (inactive), the GI50 (NCI-H23) was 72.8 µM (inactive) and the GI50 (NCI-H460) was 98.6 µM (inactive). The GI50 (NCI-H522) was 94.8 µM (inactive), the GI50 (OVCAR-3) was 51.8 µM (inactive) and the GI50 (OVCAR-4) was 25.2 µM (inactive). For the same compound, the GI50 (OVCAR-5) was > 100 µM (inactive), the GI50 (OVCAR-8) was 51.4 µM (inactive) and the GI50 (RPMI-8226) was > 100 µM (inactive). For the same compound, the GI50 (RXF 393) was 20.9 µM (inactive), the GI50 (SF-268) was 55.7 µM (inactive) and the GI50 (SF-295) was 36.9 µM (inactive). The GI50 (SF-539) was 17.7 µM (inactive), the GI50 (SK-MEL-5) was > 100 µM (inactive) and the GI50 (SK-OV-3) was 53.5 µM (inactive). The GI50 (SN12C) was > 100 µM (inactive), the GI50 (SNB-19) was 67.9 µM (inactive) and the GI50 (SNB-75) was 27.2 µM (inactive). For the same compound, the GI50 (SNB-78) was 54.7 µM (inactive), the GI50 (SR) was > 100 µM (inactive) and the GI50 (SW-620) was > 100 µM (inactive). The GI50 (TK-10) was > 100 µM (inactive), the GI50 (U-251) was 42.9 µM (inactive) and the GI50 (UACC-257) was 71.8 µM (inactive). For the same compound, the GI50 (UACC-62) was 61 µM (inactive), the GI50 (UO-31) was 59.7 µM (inactive) and the GI50 (XF498) was 23.1 µM (inactive).
